According to publication PMC10604720, “Unraveling the Mechanism of Epichaperome Modulation by Zelavespib: Biochemical Insights on Target Occupancy and Extended Residence Time at the Site of Action” (Biomedicines, 2023):

Legend:
epichaperomes [1] = assay: Epichaperome determination by native PAGE / SDS-PAGE immunoblotting of MDA-MB-468 tumors; assay type: in vivo, mouse
Protocol: For epichaperome analysis, tumors were cut into small pieces and homogenized in native lysis buffer (20 mM HEPES pH 7.5, 50 mM KCl, 5 mM MgCl2, 0.01% NP40, 20 mM Na2MoO4) containing protease and phosphatase inhibitors using BioMasher® II Micro Tissue Homogenizers (VWR, Radnor, PA, USA). Samples were left on ice for 30 min and then subjected to native PAGE analysis. Protein concentrations were determined using the BCA kit (Pierce, Waltham, MA, USA) according to the manufacturer’s instructions. Protein lysate (10–60 µg) was loaded onto 5.5% native gel and resolved at 4 °C, transferred to nitrocellulose membrane, and probed with the indicated primary antibodies: HSP90α (AB2928; RRID:AB_303423; 1:8000) from Abcam (Cambridge, UK), HOP (ADI-SRA-1500; RRID:AB_10618972; 1:1000) from Enzo and CDC37 (4793S; RRID:AB_10695539; 1:1000) from Cell Signaling (Danvers, MA, USA). Membranes were then incubated with a 1:5000 dilution of a peroxidase-conjugated corresponding secondary antibody. Detection was performed using the ECL Enhanced Chemiluminescence Detection System (Pierce™ ECL Western Blotting Substrate) according to the manufacturer’s instructions.
In cellular studies, it has been proposed that zelavespib, upon binding, becomes trapped inside the epichaperome assemblies, leading to the disassembly of epichaperomes into individual components. However, this biochemical mechanism’s impact on the residence time of zelavespib at the site of action remains poorly understood in vivo. To investigate this, we analyzed the epichaperome target in tumors at 30 h and 72 h post-zelavespib administration using non-denaturing electrophoresis (native PAGE) (Figure 4a–c).
Figure 4 Epichaperome modulation by zelavespib in MDA-MB-468 tumor-bearing mice. (a) native-PAGE (top) or SDS-PAGE (bottom) followed by immunoblotting of epichaperome components (i.e., constituent chaperones and co-chaperones) in MDA-MB-468 tumors. Tumor-bearing mice were injected with a single dose of 50 mg/kg zelavespib, and tumor analysis was performed after sacrificing the mice at 30 h and 72 h post-zelavespib administration (n = 5 mice per time-point). Gels, representative tumors. To account for tumor heterogeneity (i.e., MDA-MB-468 are aggressive tumors with highly proliferative periphery adjacent to areas of necrosis), several cuts from the same tumor were analyzed when tumor size permitted. β-actin and GAPDH, protein loading controls; black arrowhead, biochemical signature of folding HSP90 pools as detected by native PAGE separation and immunoblotting; red arrowhead, non-specific signal, LE, low exposure; HE, high exposure. (b) Graph, data are presented as means ± s.e.m., n = 7, one-way ANOVA with Dunnett’s post hoc of tumors as in a. Because HSP90 in epichaperomes was not well separated from the folding HSP90 pool, we performed epichaperome quantification using CDC37 in epichaperomes as a surrogate marker. (c) Cartoon showing the proposed biochemical mechanism in vivo. Initially, zelavespib becomes trapped when epichaperomes bound, a mechanism that results in epichaperome disassembly, with no change in the expression level of epichaperome constituents. We propose that the initial trapping stage of epichaperomes is a main contributing factor to the extended on-target residence time observed for this agent in clinical settings. Zelavespib’s residence time in tumors seems to be dictated by target disassembly kinetics rather than by frank drug–target unbinding kinetics.

epichaperomes [2] = assay: In vivo target-drug unbinding kinetics taken from Phase 2 tumor pharmacokinetics; set-up: species or system mouse
Protocol: Figure 1 Biodistribution of zelavespib in MDA-MB-468 tumor-bearing mice. (a) Biodistribution of [^124I]-Zelavespib in MDA-MB-468 tumors, organs, tissues, and plasma as per ref. [32]. Data are presented as means ± s.d., five mice per time point. Curves for blood, lung, heart, muscle, bone, and brain were fitted using a one-phase decay equation, and kinetics of zelavespib clearance were determined. Tumor curve was fitted to a two-phase exponential decay. k, kfast, and kslow are the rate constants. Half-life (T1/2) is computed as ln(2)/k. […] (b) Illustrative schematic showing the distinct binding kinetics of zelavespib to epichaperomes (slow off-rate) and to chaperone assemblies (fast off-rate). The tumor pharmacokinetics profile recorded in the Phase 2 interval may represent a direct reflection of the in vivo kinetics of target–drug unbinding. koff, kinetic rate constant for dissociation of an epichaperome-zelavespib assembly. Rt, retention time. […]

## CC(C)NCCCn1c(Sc2cc3c(cc2I)OCO3)nc2c(N)ncnc21 [zelavespib]
Epichaperomes [1]; 30 h post single 50 mg/kg
  total chaperone levels on SDS-PAGE: no corresponding alteration
Epichaperomes [1]; 30 h post single 50 mg/kg, CDC37 in epichaperomes as surrogate marker
  increase in epichaperome signal on native PAGE compared to baseline: ~2.29 fold
Epichaperomes [1]; 72 h post single 50 mg/kg
  decrease of epichaperome levels compared to baseline: approximately 1.8 fold
  total chaperone levels on SDS-PAGE: no observable change
Epichaperomes [1]; 72 h post single 50 mg/kg, CDC37 in epichaperomes as surrogate marker
  decrease in epichaperome signal on native PAGE compared to 30 h: approximately 4.15 fold
Epichaperomes [1]; 72 h post-zelavespib administration
  baseline epichaperome target remaining in tumors: approximately 24.09%
Epichaperomes [2]; epichaperome-zelavespib assembly
  Rt = 1/koff (retention time): 67.56 h
Epichaperomes [2]; taken as k of tumor Phase 2
  koff, dissociation of epichaperome-zelavespib assembly: 4.11e-06 s⁻¹
